What all share (format): cell-based
The test system of test [1] is Bacteria expressing Ambler Class B carbapenemases. Kind of test: Growth tests with chelating agents added to antibiotic. On the procedure:
Non-limiting embodiments of detection tests for enteric and non-fermenting bacteria, with various concentration ranges of one or more antibiotics, and various concentration ranges for one or more inhibitors are shown in FIG. 1-FIG. 24 and FIG. 31. These figures illustrate the concentration of the antibiotic being tested (in μg/ml) along the x-axis (not every concentration is tested in every figure), and the amount of growth of bacteria in the sample in the y-axis. The boxes illustrate the median, interquartile range, non-outlier minimum and maximum; with asterisks representing single outliers. Each figure has a panel for Class A, Class B, and Class D producing bacteria, as well as a panel for non-carbapenemase producing bacteria (NEG). In some embodiments, the detection tests described herein are not performed by imaging a change in cell morphology.

The next test concerns E. cloacae 0032. The experiment in a line: Carbapenem MIC of study isolate. Particulars: Enterobacter cloacae, KPC-3, TEM-1.
The next test has as its system S. marcescens G153. The experiment in a line: Carbapenem MIC of study isolate. Particulars: Serratia marcescens, KPC.
The next test deals with E. coli 0086. Kind of test: Carbapenem MIC of study isolate. Particulars: Escherichia coli, CTX-M-9.
For a further test, the system named is K. pneumoniae 0047. The experiment in a line: Carbapenem MIC of study isolate. Particulars: Klebsiella pneumoniae, OmpK35.
The subject of the next test is K. oxytoca G1640. Kind of test: Carbapenem MIC of study isolate. Particulars: Klebsiella oxytoca, KPC.
A further test deals with K. pneumoniae 0043. The experiment in a line: Carbapenem MIC of study isolate. The following applies: Klebsiella pneumoniae, SHV-12, OmpK36.
The subject of another test is K. pneumoniae G1758. Kind of test: Carbapenem MIC of study isolate. Particulars: Klebsiella pneumoniae, CLSI MHT negative control.
For another test, the system named is E. aerogenes G1614. The experiment in a line: Carbapenem MIC of study isolate. The following applies: Klebsiella aerogenes, High AmpC.
For the next test, the system named is K. pneumoniae G158. The experiment in a line: Carbapenem MIC of study isolate. Particulars: Klebsiella pneumoniae, KPC-8.
For a further test, the system named is K. pneumoniae 0079. Kind of test: Carbapenem MIC of study isolate. Particulars: Klebsiella pneumoniae, CTX-M-14, OmpK35 (Table 4.2 also DHA-1).
The next test has as its system E. cloacae G1735. Kind of test: Carbapenem MIC of study isolate. Particulars: Enterobacter cloacae.
Another test concerns K. pneumoniae 0109. Kind of test: Carbapenem MIC of study isolate. Particulars: Klebsiella pneumoniae, CTX-M-15, TEM-1, SHV-1.
In another test the test system is E. cloacae G1693. The experiment in a line: Carbapenem MIC of study isolate. The following applies: Enterobacter cloacae, IMP-8 (Table 4.1).
For the next test, the system named is E. cloacae G1637. The experiment in a line: Carbapenem MIC of study isolate. Particulars: Enterobacter cloacae, High AmpC.
A further test has as its system E. coli 0137. Kind of test: Carbapenem MIC of study isolate. The following applies: Escherichia coli, NDM-6.
The test system of a further test is K. pneumoniae G157. Kind of test: Carbapenem MIC of study isolate. The following applies: Klebsiella pneumoniae, KPC-8.
A further test has as its system E. aerogenes G1648. The experiment in a line: Carbapenem MIC of study isolate. Particulars: Klebsiella aerogenes, High AmpC.
The subject of another test is K. oxytoca 0147. Kind of test: Carbapenem MIC of study isolate. The following applies: KPC.
In the next test the test system is E. cloacae G1691. The experiment in a line: Carbapenem MIC of study isolate. Particulars: Enterobacter cloacae; IMP-8-producing E. cloacae G1691.
A further test concerns M. morganii G1751. Kind of test: Carbapenem MIC of study isolate. The following applies: Morganella morganii, High AmpC.
Another test relates to A. baumannii 0052. Kind of test: Carbapenem MIC of study isolate. The following applies: Acinetobacter baumannii, OXA-58.
In a further test the test system is K. pneumoniae 0044. The experiment in a line: Carbapenem MIC of study isolate. The following applies: Klebsiella pneumoniae, CTX-M-15, TEM-1, SHV-1.
For a further test, the system named is E. coli 0119. The experiment in a line: Carbapenem MIC of study isolate. Particulars: Escherichia coli, NDM.
The subject of a further test is K. pneumoniae G1675. Kind of test: Carbapenem MIC of study isolate. Particulars: Klebsiella pneumoniae, KPC-2, SHV-5-like.
In the next test the test system is P. aeruginosa G15019. Kind of test: Carbapenem MIC of study isolate.
The next test deals with P. mirabilis 0155. The experiment in a line: Carbapenem MIC of study isolate. The following applies: Proteus mirabilis, KPC.
Another test concerns K. pneumoniae G1685. The experiment in a line: Carbapenem MIC of study isolate. The following applies: Klebsiella pneumoniae, CMY-2-like.
A further test deals with K. pneumoniae G1725. The experiment in a line: Carbapenem MIC of study isolate. Particulars: Klebsiella pneumoniae, KPC.
The subject of another test is P. aeruginosa G15557. Kind of test: Carbapenem MIC of study isolate. Particulars: VIM-like.
For a further test, the system named is K. pneumoniae 0113. Kind of test: Carbapenem MIC of study isolate. The following applies: Klebsiella pneumoniae, KPC-3.
Another test concerns E. coli G1693. Kind of test: Carbapenem MIC of study isolate. Particulars: Escherichia coli, High AmpC, S12like (Table 2), High AmpC (Table 4.2).
For another test, the system named is E. coli 0058. Kind of test: Carbapenem MIC of study isolate. The following applies: Escherichia coli, ESBL.
The next test concerns C. freundii G1706. The experiment in a line: Carbapenem MIC of study isolate. The following applies: Citrobacter freundii, KPC.
A further test relates to K. pneumoniae 0042. The experiment in a line: Carbapenem MIC of study isolate. The following applies: Klebsiella pneumoniae, CTX-M-28, OmpK35, OmpK36.
In another test the test system is P. aeruginosa G15. Kind of test: Carbapenem MIC of study isolate. Particulars: Pseudomonas aeruginosa, KPC-5.
The test system of another test is E. coli G164. The experiment in a line: Carbapenem MIC of study isolate. The following applies: Escherichia coli, High AmpC (Table 2), SHV-12-like (Table 4.2).
Another test has as its system P. mirabilis G15185. The experiment in a line: Carbapenem MIC of study isolate.
The test system of a further test is A. baumannii G1734. Kind of test: Carbapenem MIC of study isolate. Particulars: Acinetobacter baumannii, OXA-40.
For a further test, the system named is P. mirabilis 0156. The experiment in a line: Carbapenem MIC of study isolate. The following applies: Proteus mirabilis, KPC.
The test system of the next test is K. pneumoniae G1511. Kind of test: Carbapenem MIC of study isolate.
A further test concerns K. ozaenae 0096. Kind of test: Carbapenem MIC of study isolate. The following applies: KPC.
Another test relates to P. mirabilis G1745. The experiment in a line: Carbapenem MIC of study isolate. The following applies: Proteus mirabilis, CMY, TEM-1-like.
[2] abbreviates: Klebsiella oxytoca, read-out: MIC.
The mark [3] stands for this setting: Pseudomonas aeruginosa, VIM-2, read-out: MIC.
[4] abbreviates: Pseudomonas aeruginosa, read-out: MIC.
Setting [5] is: Proteus mirabilis, IMP-27, read-out: MIC.
Setting [6] is: Klebsiella pneumoniae, KPC-4, read-out: MIC.

Read-outs that look alike come from different tables or passages of the source.

As to `O=C(O)CN(CCN(CC(=O)O)CC(=O)O)CC(=O)O` [EDTA, ethylenediaminetetraacetic acid], the “concentration at which bacteria are sensitive” value in test [1] (FIG. 3, FIG. 4, FIG. 15 and FIG. 16 (with TEM/CLOX or DOR/CLOX)) amounted to 250 µg/mL; in [1] (FIG. 5 and FIG. 6 (with TEM/CLOX)), 280 µg/mL.

As to `O=C(O)c1cccc(C(=O)O)n1` [DPA, dipicolinic acid], in test [1] (FIG. 9, FIG. 10, FIG. 21 and FIG. 22 (with MEM/CLOX or DOR/CLOX)), the “concentration at which bacteria are sensitive” value worked out at 180 µg/mL.

As for `C[C@@H](O)[C@H]1C(=O)N2C(C(=O)O)=C(S[C@@H]3CN[C@H](C(=O)Nc4cccc(C(=O)O)c4)C3)[C@H](C)[C@H]12` [Ertapenem], the MIC in the test with E. cloacae 0032, with S. marcescens G153, in the test on E. coli 0086, in the test with K. pneumoniae 0047, in the test on K. oxytoca G1640 and in the test on K. pneumoniae 0043 was greater than 1 µg/mL in each case. Further, the MIC in the test with K. pneumoniae G1758, with E. aerogenes G1614, in the test on K. pneumoniae G158, in the test with K. pneumoniae 0079, in the test with E. cloacae G1735 and with K. pneumoniae 0109 was greater than 1 µg/mL each time. Also, the MIC was 0.5 µg/mL in the test on E. cloacae G1693; greater than 1 µg/mL in the test with E. cloacae G1637; greater than 1 µg/mL in the test with E. coli 0137; greater than 1 µg/mL with K. pneumoniae G157; greater than 1 µg/mL with E. aerogenes G1648; greater than 1 µg/mL in the test on K. oxytoca 0147 (listed as ERT). The MIC in the test on K. oxytoca 0147 (setting [2]), in the test on E. cloacae G1691, in the test on M. morganii G1751, with A. baumannii 0052, in the test on K. pneumoniae 0044 and in the test with E. coli 0119 was greater than 1 µg/mL throughout. The MIC was greater than 1 µg/mL in the test with K. pneumoniae G1675; greater than 1 µg/mL with P. aeruginosa G15019 (setting [3]); greater than 1 µg/mL with P. aeruginosa G15019 (VIM-2, listed as ERT); greater than 1 µg/mL in the test on P. mirabilis 0155; greater than 1 µg/mL in the test with K. pneumoniae G1685; greater than 1 µg/mL in the test on K. pneumoniae G1725. Also, the MIC is greater than 1 µg/mL in the test with P. aeruginosa G15557 (setting [4]); greater than 1 µg/mL in the test with P. aeruginosa G15557 (listed as ERT); greater than 1 µg/mL with K. pneumoniae 0113; greater than 1 µg/mL with E. coli G1693; greater than 1 µg/mL with E. coli 0058; 1 µg/mL with C. freundii G1706. Also, the MIC is greater than 1 µg/mL in the test on K. pneumoniae 0042; greater than 1 µg/mL with P. aeruginosa G15; greater than 1 µg/mL in the test on E. coli G164; greater than 1 µg/mL in the test with P. mirabilis G15185 (IMP-27, listed as ERT); greater than 1 µg/mL in the test on P. mirabilis G15185 (setting [5]); greater than 1 µg/mL in the test with A. baumannii G1734. Besides, the MIC with P. mirabilis 0156 is 0.5 µg/mL; in the test with K. pneumoniae G1511 (KPC-4, listed as ERT), greater than 1 µg/mL; in the test on K. pneumoniae G1511 (setting [6]), greater than 1 µg/mL; in the test with K. ozaenae 0096 it was greater than 1 µg/mL; with P. mirabilis G1745 it was no more than 0.25 µg/mL.

Turning to `C[C@@H](O)[C@H]1C(=O)N2C(C(=O)O)=C(S[C@@H]3CN[C@H](C(=O)N(C)C)C3)[C@H](C)[C@H]12` [Meropenem], the MIC is 2 µg/mL with E. cloacae 0032; greater than 8 µg/mL in the test on S. marcescens G153; greater than 8 µg/mL with E. coli 0086; greater than 8 µg/mL with K. pneumoniae 0047; greater than 8 µg/mL with K. oxytoca G1640; greater than 8 µg/mL with K. pneumoniae 0043. Further, the MIC in the test on K. pneumoniae G1758 was 1 µg/mL; in the test with E. aerogenes G1614 it was greater than 8 µg/mL; with K. pneumoniae G158, greater than 8 µg/mL; with K. pneumoniae 0079, greater than 8 µg/mL; with E. cloacae G1735 it was greater than 8 µg/mL; in the test on K. pneumoniae 0109 it was 8 µg/mL. Further, the MIC with E. cloacae G1693 was 0.5 µg/mL; in the test with E. cloacae G1637, greater than 8 µg/mL; in the test with E. coli 0137, greater than 8 µg/mL; with K. pneumoniae G157, greater than 8 µg/mL; in the test with E. aerogenes G1648, greater than 8 µg/mL; in the test with K. oxytoca 0147 (listed as MEM) it was greater than 8 µg/mL. The MIC in the test with K. oxytoca 0147 (setting [2]) is greater than 8 µg/mL; in the test with E. cloacae G1691, 0.5 µg/mL; in the test with M. morganii G1751, 4 µg/mL; with A. baumannii 0052, 8 µg/mL; in the test on K. pneumoniae 0044, greater than 8 µg/mL; in the test on E. coli 0119, greater than 8 µg/mL. Also, the MIC in the test with K. pneumoniae G1675 was greater than 8 µg/mL; in the test on P. aeruginosa G15019 (setting [3]), 4 µg/mL; in the test on P. mirabilis 0155, 8 µg/mL; in the test with K. pneumoniae G1685 it was greater than 8 µg/mL; in the test with K. pneumoniae G1725, greater than 8 µg/mL; in the test with P. aeruginosa G15557 (setting [4]), 4 µg/mL. Further, the MIC in the test on K. pneumoniae 0113 is greater than 8 µg/mL; in the test with E. coli G1693, greater than 8 µg/mL; in the test with E. coli 0058 it was 0.5 µg/mL; in the test with C. freundii G1706, 0.25 µg/mL; in the test with K. pneumoniae 0042, 4 µg/mL; in the test with P. aeruginosa G15, greater than 8 µg/mL. Besides, the MIC in the test on E. coli G164 is greater than 8 µg/mL; with P. mirabilis G15185 (IMP-27, listed as MEM), greater than 8 µg/mL; in the test on P. mirabilis G15185 (setting [5]) it was greater than 8 µg/mL; in the test with A. baumannii G1734, greater than 8 µg/mL; with P. mirabilis 0156, 0.25 µg/mL; in the test on K. pneumoniae G1511 (setting [6]), 2 µg/mL. Also, the MIC in the test with K. ozaenae 0096 was greater than 8 µg/mL; in the test on P. mirabilis G1745 it was no more than 0.125 µg/mL.

(Values after US12234499B2, “Compositions, methods, systems and/or kits for detecting antimicrobial resistance in bacteria” (priority 2016, dated 2025).)
